Reference: patent publication US10745384B2, “Indazole derivatives as αv integrin antagonists” (BRISTOL-MYERS SQUIBB COMPANY, priority 2016, dated 2020)
Structures can show the parent of a compound that is named as a salt.

Each compound was assayed against T1, human αVβ6 (Homo sapiens, UniProt P06756+P18564) (assay: human αVβ6 HTRF binding assay). Settings: recombinant human αVβ6 integrin, FITC-conjugated fibronectin.
T1 construct: purchased R & D systems 3817-AV
T1 sequence (P06756 31-992 limits assumed): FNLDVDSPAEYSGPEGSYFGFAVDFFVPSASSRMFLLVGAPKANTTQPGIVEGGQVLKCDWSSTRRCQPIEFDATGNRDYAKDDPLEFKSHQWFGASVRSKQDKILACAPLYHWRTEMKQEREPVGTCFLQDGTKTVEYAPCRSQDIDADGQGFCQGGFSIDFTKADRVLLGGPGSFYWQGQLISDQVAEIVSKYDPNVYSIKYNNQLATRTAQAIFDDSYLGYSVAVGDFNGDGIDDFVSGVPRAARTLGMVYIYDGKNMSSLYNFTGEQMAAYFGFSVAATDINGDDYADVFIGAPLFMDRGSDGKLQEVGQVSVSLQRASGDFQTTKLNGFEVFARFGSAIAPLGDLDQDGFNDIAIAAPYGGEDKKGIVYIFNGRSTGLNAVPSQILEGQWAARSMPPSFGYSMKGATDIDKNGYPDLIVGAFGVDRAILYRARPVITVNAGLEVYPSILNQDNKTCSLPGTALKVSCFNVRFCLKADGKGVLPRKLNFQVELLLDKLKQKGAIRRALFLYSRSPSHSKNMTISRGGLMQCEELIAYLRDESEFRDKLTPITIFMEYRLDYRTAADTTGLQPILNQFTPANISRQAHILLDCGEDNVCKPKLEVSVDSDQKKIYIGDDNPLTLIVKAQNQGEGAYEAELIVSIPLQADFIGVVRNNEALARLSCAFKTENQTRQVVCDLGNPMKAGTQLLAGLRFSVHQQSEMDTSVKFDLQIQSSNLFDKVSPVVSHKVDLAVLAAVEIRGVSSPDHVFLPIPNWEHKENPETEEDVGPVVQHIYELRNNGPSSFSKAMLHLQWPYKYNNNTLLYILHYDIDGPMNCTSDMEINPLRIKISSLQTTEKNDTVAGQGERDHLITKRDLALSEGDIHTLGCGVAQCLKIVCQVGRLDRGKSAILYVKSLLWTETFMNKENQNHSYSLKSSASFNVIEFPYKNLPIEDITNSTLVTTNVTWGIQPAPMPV
T1 sequence (P18564 22-707 limits assumed): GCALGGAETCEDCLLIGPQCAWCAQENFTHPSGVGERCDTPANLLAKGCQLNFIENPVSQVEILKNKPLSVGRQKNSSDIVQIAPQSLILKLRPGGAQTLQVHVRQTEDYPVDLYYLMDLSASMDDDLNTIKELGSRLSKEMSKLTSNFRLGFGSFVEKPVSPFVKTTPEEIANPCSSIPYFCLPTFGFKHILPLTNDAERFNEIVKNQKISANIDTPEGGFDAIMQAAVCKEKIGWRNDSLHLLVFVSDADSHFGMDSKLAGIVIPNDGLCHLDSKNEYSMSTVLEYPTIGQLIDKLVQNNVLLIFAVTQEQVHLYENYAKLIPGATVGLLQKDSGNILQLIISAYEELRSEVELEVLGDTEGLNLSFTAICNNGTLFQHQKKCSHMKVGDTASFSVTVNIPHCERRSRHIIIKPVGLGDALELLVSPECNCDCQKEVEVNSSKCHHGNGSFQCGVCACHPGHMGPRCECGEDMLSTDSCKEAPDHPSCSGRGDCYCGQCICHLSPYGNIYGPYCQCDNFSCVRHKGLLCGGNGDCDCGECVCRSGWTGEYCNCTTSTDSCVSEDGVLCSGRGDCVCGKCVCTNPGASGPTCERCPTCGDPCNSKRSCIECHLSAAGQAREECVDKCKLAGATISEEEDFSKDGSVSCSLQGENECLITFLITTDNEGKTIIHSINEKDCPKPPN
Description: All binding assays used the HTRF (homogeneous time resolved fluorescence) technology from Cisbio International, therefore all assays are described as HTRF binding assays. The assay results for the Examples are listed above together with the characterization data. The HTRF binding assays are established for the following integrins: human αVβ6, human αVβ1, human αVβ3, human αVβ5, and human αVβ8. All assays used the following assay buffer: 20 mM Tris, pH 7.4, 1 mM MgCl2, 1 mM MnCl2, 0.01% Tween 20, and 0.01% BSA. Alternatively, a SPA-based assay was used for evaluation of receptor binding.
The following describes the components and a representative procedure for the human αVβ6 HTRF binding assay: Recombinant human αVβ6 Integrin (R & D systems, 3817-AV) was biotinylated. Biotinylated human αVβ6 Integrin was added to assay vessel at a final concentration of 1.25 nM. FITC-conjugated fibronectin (Cytoskeleton, FNR02) was then added at the final concentration of 5 nM. The mixture was centrifuged at 600 rpm for three minutes using Thermo Fisher Heraeus Multifuge X3 centrifuge and then incubated at room temperature for an hour. Streptavidin Terbium (Cisbio international 610STLB) was then added at the final concentration of 0.625 nM. The resulting mixture was centrifuged at 600 rpm for three minutes using Thermo Fisher Heraeus Multifuge X3 centrifuge and then incubated at room temperature overnight in dark before reading HTRF signals. […]
Work on `O=C(O)CC(c1ccc2c(c1)oc1ccccc12)n1ncc2cc(CCc3ccc4c(n3)NCCC4)ccc21` (centres unmarked) [Example 25, 3-(Dibenzo[b,d]furan-3-yl)-3-(5-(2-(5,6,7,8-tetrahydro-1,8-naphthyridin-2-yl)ethyl)-1H-indazol-1-yl)propanoic acid] yielded an IC50 of 530 nM. `O=C(O)C[C@@H](c1cncc(N2CCCC2=O)c1)n1ncc2cc(OCCc3ccc4c(n3)NCCC4)ccc21` [Example 151, (5)-3-(5-(2-oxopyrrolidin-1-yl)pyridin-3-yl)-3-(5-(2-(5,6,7,8-tetrahydro-1,8-naphthyridin-2-yl)ethoxy)-1H-indazol-1-yl)propanoic acid] gave an IC50 of 1 nM. `O=C(O)CC1(n2ncc3cc(OCCc4ccc5c(n4)NCCC5)ccc32)CC1` [Example 76, 2-(1-(5-(2-(5,6,7,8-tetrahydro-1,8-naphthyridin-2-yl)elhoxy)-1H-indazol-1-yl)cyclopropyl)acetic acid, TFA] showed an IC50 of 3400 nM. Work on `O=C(O)CC(c1ccc2c(c1)CCO2)n1ncc2cc(OCCc3ccc4c(n3)NCCC4)ccc21` (centres unmarked) [Example 47, 3-(2,3-Dihydrobenzofuran-5-yl)-3-(5-(2-(5,6,7,8-tetrahydro-1,8-naphthyridin-2-yl)ethoxy)-1H-indazol-1-yl)propanoic acid, TFA] yielded an IC50 of 7 nM. With `COc1ncc([C@H](CC(=O)O)n2ncc3cc(OCCc4ccc5c(n4)NCCC5)ccc32)cn1` [Example 148, (S)-3-(2-methoxypyrimidin-5-yl)-3-(5-(2-(5,6,7,8-tetrahydro-1,8-naphthyridin-2-yl)ethoxy)-1H-indazol-1-yl)propanoic acid] the IC50 was 18 nM. `COc1ccc([C@H](CC(=O)O)n2cc3cc(OCCc4ccc5c(n4)NCCC5)ccc3n2)cn1` [Example 6, (S)-3-(6-Methoxypyridin-3-yl)-3-(5-(2-(5,6,7,8-tetrahydro-1,8-naphthyridin-2-yl)ethoxy)-2H-indazol-2-yl)propanoic acid] was tested, and the IC50 was 600 nM. For `O=C(O)CC(c1cnc(N2CCOCC2)nc1)n1ncc2cc(OCCc3ccc4c(n3)NCCC4)ccc21` (centres unmarked) [Example 111, 3-(2-Morpholinopyrimidin-5-yl)-3-(5-(2-(5,6,7,8-tetrahydro-1,8-naphthyridin-2-yl)ethoxy)-1H-indazol-1-yl)propanoic acid, TFA], the IC50 was 24 nM. In the case of `COc1ncc([C@@H](CC(=O)O)n2ncc3cc(OCCc4ccc5c(n4)NCCC5)ccc32)cn1` [Example 147, (R)-3-(2-methoxypyrimidin-5-yl)-3-(5-(2-(5,6,7,8-tetrahydro-1,8-naphthyridin-2-yl)ethoxy)-1H-indazol-1-yl)propanoic acid], the IC50 is reported as 620 nM. `O=C(O)CC(c1cc(Cl)cc(Cl)c1)n1ncc2c(CCCc3ccc4c(n3)NCCC4)cccc21` (centres unmarked) [Example 18, 3-(3,5-Dichlorophenyl)-3-(4-(3-(5,6,7,8-tetrahydro-1,8-naphthyridin-2-yl)propyl)-1H-indazol-1-yl)propanoic acid] was tested, and the IC50 was 2700 nM. For `O=C(O)CCCNc1cncc(C(CC(=O)O)n2ncc3cc(OCCc4ccc5c(n4)NCCC5)ccc32)n1` (centres unmarked) [Example 173, 4-((6-(2-Carboxy-1-(5-(2-(5,6,7,8-tetrahydro-1,8-naphthyridin-2-yl)ethoxy)-1H-indazol-1-yl)ethyl)pyrazin-2-yl)amino)butanoic acid], the IC50 was 370 nM. In the case of `CCCC(CC(=O)O)n1ncc2cc(OCCc3ccc4c(n3)NCCC4)ccc21` (centres unmarked) [Example 162, 3-(5-(2-(5,6,7,8-tetrahydro-1,8-naphthyridin-2-yl)ethoxy)-1H-indazol-1-yl)hexanoic acid], the IC50 is reported as 730 nM. For `CN1CCN(C(=O)c2cncc(C(CC(=O)O)n3ncc4cc(OCCc5ccc6c(n5)NCCC6)ccc43)c2)CC1` (centres unmarked) [Example 154, 3-(5-(4-methylpiperazine-1-carbonyl)pyridin-3-yl)-3-(5-(2-(5,6,7,8-tetrahydro-1,8-naphthyridin-2-yl)ethoxy)-1H-indazol-1-yl)propanoic acid], the IC50 was 29 nM. `O=C(O)CC(c1cnc2ccccc2n1)n1ncc2c(OCCc3ccc4c(n3)NCCC4)cccc21` (centres unmarked) [Example 33, 3-(Quinoxalin-2-yl)-3-(4-(2-(5,6,7,8-tetrahydro-1,8-naphthyridin-2-yl)ethoxy)-1H-indazol-1-yl)propanoic acid] showed an IC50 of 1600 nM. Work on `O=C(O)CC(c1ccncc1)n1ncc2cc(OCCc3ccc4c(n3)NCCC4)ccc21` (centres unmarked) [Example 75, 3-(Pyridin-4-yl)-3-(5-(2-(5,6,7,8-tetrahydro-1,8-naphthyridin-2-yl)ethoxy)-1H-indazol-1-yl)propanoic acid, 2 TFA] yielded an IC50 of 23 nM. `COC(=O)NCc1cncc([C@@H](CC(=O)O)n2ncc3cc(OCCc4ccc5c(n4)NCCC5)ccc32)c1` [Example 168] was tested, and the IC50 was 740 nM. `Cc1cc(C)nc(C(CC(=O)O)n2ncc3cc(OCCc4ccc5c(n4)NCCC5)ccc32)n1` (centres unmarked) [Example 55, 3-(4,6-Dimethylpyrimidin-2-yl)-3-(5-(2-(5,6,7,8-tetrahydro-1,8-naphthyridin-2-yl)ethoxy)-1H-indazol-1-yl)propanoic acid, TFA] showed an IC50 of 920 nM. For `COc1ccc(C(CC(=O)O)n2ncc3cc(OCCc4ccc5c(n4)NCCN5C)ccc32)cn1` (centres unmarked) [Example 179, 3-(6-Methoxypyridin-3-yl)-3-(5-(2-(1-methyl-1,2,3,4-tetrahydropyrido[2,3-b]pyrazin-6-yl)ethoxy)-1H-indazol-1-yl)propanoic acid], the IC50 was 47 nM. `O=C(O)CC(c1ccccn1)n1ncc2cc(OCCc3ccc4c(n3)NCCC4)ccc21` (centres unmarked) [Example 61, 3-(Pyridin-2-yl)-3-(5-(2-(5,6,7,8-tetrahydro-1,8-naphthyridin-2-yl)ethoxy)-1H-indazol-1-yl)propanoic acid, TFA] showed an IC50 of 80 nM. `O=C(O)CC(c1cccc(N2CCCC2=O)c1)n1ncc2cc(OCCc3ccc4c(n3)NCCC4)ccc21` (centres unmarked) [Example 62, 3-(3-(2-Oxopyrrolidin-1-yl)phenyl)-3-(5-(2-(5,6,7,8-tetrahydro-1,8-naphthyridin-2-yl)ethoxy)-1H-indazol-1-yl)propanoic acid, TFA] showed an IC50 of 37 nM. `O=C(O)CC(CCC(F)(F)F)n1ncc2c(CCCc3ccc4c(n3)NCCC4)cccc21` (centres unmarked) [Example 31, 6,6,6-Trifluoro-3-(4-(3-(5,6,7,8-tetrahydro-1,8-naphthyridin-2-yl)propyl)-1H-indazol-1-yl)hexanoic acid] was tested, and the IC50 was 3300 nM. In the case of `Cc1nc2c(cc1Cc1ccc3cn([C@@H](CC(=O)O)c4cnc5ccccc5c4)nc3c1)CCCN2` [Example 82, (S)-3-(6-((2-Methyl-5,6,7,8-tetrahydro-1,8-naphthyridin-3-yl)methyl)-2H-indazol-2-yl)-3-(quinolin-3-yl)propanoic acid], the IC50 is reported as 150 nM. Compound `O=C(O)C[C@@H](c1cnc2nccnc2c1)n1ncc2cc(OCCc3ccc4c(n3)NCCC4)ccc21` [Example 129, (S)-3-(Pyrido[2,3-b]pyrazin-7-yl)-3-(5-(2-(5,6,7,8-tetrahydro-1,8-naphthyridin-2-yl)ethoxy)-1H-indazol-1-yl)propanoic acid] has an IC50 of 480 nM. Work on `Cn1ncc2ncc(C(CC(=O)O)n3ncc4cc(OCCc5ccc6c(n5)NCCC6)ccc43)cc21` (centres unmarked) [Example 137, 3-(1-Methyl-1H-pyrazolo[4,3-b]pyridin-6-yl)-3-(5-(2-(5,6,7,8-tetrahydro-1,8-naphthyridin-2-yl)ethoxy)-1H-indazol-1-yl)propanoic acid] yielded an IC50 of 7 nM. `COc1ccc([C@H](CC(=O)O)n2cc3cc(CCCc4ccc5c(n4)NCCC5)ccc3n2)cn1` [Example 67, (S)-3-(6-Methoxypyridin-3-yl)-3-(5-(3-(5,6,7,8-tetrahydro-1,8-naphthyridin-2-yl)propyl)-2H-indazol-2-yl)propanoic acid] gave an IC50 of 740 nM. For `CCN1CCn2c(C(CC(=O)O)n3ncc4cc(OCCc5ccc6c(n5)NCCC6)ccc43)cnc2C1` (centres unmarked) [Example 122, 3-(7-Ethyl-5,6,7,8-tetrahydroimidazo[1,2-a]pyrazin-3-yl)-3-(5-(2-(5,6,7,8-tetrahydro-1,8-naphthyridin-2-yl)ethoxy)-1H-indazol-1-yl)propanoic acid], the IC50 was 14 nM. `COc1ccc([C@H](CC(=O)O)n2cc3cc(CCc4ccc5c(n4)NCCC5)ccc3n2)cn1` [Example 64, (S)-3-(6-Methoxypyridin-3-yl)-3-(5-(2-(5,6,7,8-tetrahydro-1,8-naphthyridin-2-yl)ethyl)-2H-indazol-2-yl)propanoic acid] gave an IC50 of 19 nM. For `COc1ccc(C(CC(=O)O)n2ncc3cc(CCc4ccc5c(n4)NCCC5)ccc32)cn1` (centres unmarked) [Example 2, 3-(6-Methoxypyridin-3-yl)-3-(5-(2-(5,6,7,8-tetrahydro-1,8-naphthyridin-2-yl)ethyl)-1H-indazol-1-yl)propanoic acid], the IC50 was 110 nM. `CN(C)c1cncc(C(CC(=O)O)n2ncc3cc(OCCc4ccc5c(n4)NCCC5)ccc32)c1` (centres unmarked) [Example 163, 3-(5-(dimethylamino)pyridin-3-yl)-3-(5-(2-(5,6,7,8-tetrahydro-1,8-naphthyridin-2-yl)ethoxy)-1H-indazol-1-yl)propanoic acid] showed an IC50 of 3.8 nM. `O=C(O)CC(c1ccc2cccnc2n1)n1ncc2cc(OCCc3ccc4c(n3)NCCC4)ccc21` (centres unmarked) [Example 96, 3-(1,8-Naphthyridin-2-yl)-3-(5-(2-(5,6,7,8-tetrahydro-1,8-naphthyridin-2-yl)ethoxy)-1H-indazol-1-yl)propanoic acid, 2 TFA] showed an IC50 of 7.2 nM.
